Structures can show the parent of a compound that is named as a salt. Where two headings read alike, the source gives them in different places.
How the values were obtained:
β-lactamase TEM1 = molecular target: T1, β-lactamase TEM1 (Escherichia coli, UniProt P62593); assay: β-lactamase inhibiting activity (Nitrocefin hydrolysis); format: biochemical, E. coli 250HT21
T1 construct: The β-lactamases are isolated from bacterial strains resistant to penicillins and to cephalosporins; endogenous in cells; host or cells: E. coli 250HT21 (soluble fraction of French-press lysate, 100 000 G supernatant)
Protocol: (§1) A. Preparation of the β-lactamases Tem˜1 and P99
(§2) The β-lactamases are isolated from bacterial strains resistant to penicillins and to cephalosporins (Tem1 and P99 are produced by E. coli 250HT21 and E. Cloacae 293HT6, respectively).
(§3) The bacteria are cultured in heart-brain broth at 37 g/l (DIFCO), at 37° C. They are harvested at the end of the exponential phase, cooled and centrifuged. The bacterial pellets are taken up in 50 mM sodium phosphate buffer pH 7.0 and again centrifuged. The bacteria are taken up in two volumes of this same buffer and lyzed by means of a French-Press kept at 4° C. After centrifugation for 1 h at 100 000 G, at 4° C., the supernatants containing the soluble fraction of the bacterial extracts are recovered and frozen at −80° C.
(§4) B. Determination of the β-lactamase Activity
(§5) The method uses, as substrate, Nitrocefin (OXOID), a chromogenic cephalosporin, whose product of hydrolysis by Beta-lactamases is red and absorbs at 485 nm. The β-lactamase activity is kinetically determined by measuring the variation in absorbance at 485 nm resulting from the hydrolysis of the substrate on a plate spectrophotometer (Spectra Max Plus from Molecular Devices). The experiments are performed at 37° C. The quantity of enzyme was normalized and the measurements are performed at the initial speed.
(§6) C. Determination of the β-lactamase Inhibiting Activity
(§7) Two measurements are carried out, without preincubation and with preincubation of the enzyme and of the inhibitor (5 min), in order to test the irreversibility of the reaction. The products are tested at 6 or 8 concentrations in duplicate. The reaction mixture contains 100 μM of Nitrocefin and 50 mM sodium phosphate buffer pH 7.0. D. Calculations of the IC50 Values
(§8) The rates of hydrolysis are measured with and without inhibitor. The concentration of inhibitor which inhibits by 50% the reaction of hydrolysis of Nitrocefin by the enzyme (IC50) is determined. The data processing is carried out with the aid of the GraFit software (Erathycus Software).

β-lactamase P99 = molecular target: T2, β-lactamase P99 (Enterobacter cloacae, UniProt P05364); assay: biochemical; format: biochemical; settings: 100 μM Nitrocefin, 50 mM sodium phosphate buffer pH 7.0, 37° C.
T2 construct: The β-lactamases are isolated from bacterial strains resistant to penicillins and to cephalosporins; endogenous in cells; host or cells: E. cloacae 293HT6 (soluble fraction of French-press lysate, 100 000 G supernatant)
Protocol: as §1, §2, §3, §4, §5, §6, §7, §8

[1] = 100 μM Nitrocefin, 50 mM sodium phosphate buffer pH 7.0, 37° C., read-out: IC50 nM/TEM1

T2 sequence (P05364 21-381): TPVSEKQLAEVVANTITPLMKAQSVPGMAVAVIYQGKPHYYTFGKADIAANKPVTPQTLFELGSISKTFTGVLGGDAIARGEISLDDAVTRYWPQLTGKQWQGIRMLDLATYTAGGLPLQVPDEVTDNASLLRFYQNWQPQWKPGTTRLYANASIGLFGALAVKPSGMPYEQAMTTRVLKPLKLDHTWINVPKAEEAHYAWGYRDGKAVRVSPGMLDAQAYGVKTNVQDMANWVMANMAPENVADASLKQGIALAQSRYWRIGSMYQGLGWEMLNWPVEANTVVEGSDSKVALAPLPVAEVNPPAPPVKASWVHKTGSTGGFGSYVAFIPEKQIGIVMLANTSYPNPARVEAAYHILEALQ
T1 sequence (P62593 24-286 limits assumed): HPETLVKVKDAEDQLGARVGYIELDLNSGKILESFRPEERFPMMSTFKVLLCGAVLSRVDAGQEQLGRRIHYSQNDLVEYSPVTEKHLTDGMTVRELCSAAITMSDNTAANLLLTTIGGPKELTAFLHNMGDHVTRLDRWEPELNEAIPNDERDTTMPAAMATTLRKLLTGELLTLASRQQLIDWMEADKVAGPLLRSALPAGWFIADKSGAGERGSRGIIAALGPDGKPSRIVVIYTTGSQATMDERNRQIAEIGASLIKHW

Row | SMILES | IC50 (β-lactamase TEM1) [nM] | IC50 (β-lactamase P99) [nM] | IC50 (β-lactamase TEM1; [1]) [nM]
1 | CC1(C)OCC(COc2ccc3c(c2)C2CN(C(=O)N2OS(=O)(=O)O)C3C(N)=O)O1 (stereo not drawn) [Example 42, Sodium Salt of trans-8-[(2,2-dimethyl-1,3-dioxolan-4-yl)methoxy]-1,2,3,5-tetrahydro-3-oxo-2-(sulfoxy)-1,4-methano-4H-2,4-benzodiazepine-5-carboxamide] | 15 | 44 | 
2 | NC(=O)[C@@H]1c2sc(-c3ccccc3C(F)(F)F)cc2[C@H]2CN1C(=O)N2OS(=O)(=O)O (relative stereo) [Example 25, Sodium Salt of Trans-4,5,6,8-tetrahydro-6-oxo-5-(sulfoxy)-2-[2-(trifluoromethyl)phenyl]-4,7-methano-7H-thieno[2,3-e][1,3]diazepine-8-carboxamide] |  | 6 | 2
3 | COC(=O)[C@@H]1c2nn(Cc3ccccc3)cc2[C@H]2CN1C(=O)N2OS(=O)(=O)O (relative stereo) [Example 1, triethylammonium salt of methyl trans-2,5,6,8-tetrahydro-6-oxo-2-(phenylmethyl)-5-(sulfoxy)-4H-4,7-methanopyrazolo[3,4-e][1,3]diazepine-8-carboxylate] |  | 5 | 3
4 | NC(=O)C1c2nn(C(=O)Nc3ccccc3)cc2C2CN1C(=O)N2OS(=O)(=O)O (centres unmarked) [Example 7, Triethylammonium Salt of 5,6-dihydro-6-oxo-N-2-phenyl-5-(sulfoxy)-4H-4,7-methanopyrazolo[3,4-e][1,3]diazepine-2,8(8H)-dicarboxamide] |  | 14 | 1

— patent publication US7439253B2, “Heterocyclic compounds, their preparation and their use as medicaments, in particular as antibacterials and beta-lactamase inhibitors” (Novexel, priority 2002, dated 2008)
